SMILES strings stand for the structures. Values after ≈ are worked out from the molar mass of the structure shown.

Data set [1] is described as follows: in vivo. The note with it: mouse, in vivo, po. As to the method: (§1) The acute toxicities in oral administration and intravenous injection of the test compounds were tested as follows:
In oral administration: To ddY-strain male mice (weighing 20-25 g, five per group) was administered orally a suspension of each test compound in a 0.5% sodium carboxymethylcellulose. […] J. Biometric Soc., 8, 249 (1959)].

A short description of data set [2]: Bioavailability in oral administration in rats. The note with it: rat, plasma, rats, oral. On the set-up: AUC at 4 h: concentration or dose not given beside the values. In kind it is in vivo, Wistar-strain male rats. As to the method: Each of the test compounds was suspended in a 0.5% sodium carboxymethylcellulose to prepare a suspension having a concentration of 5 mg/ml of the test compound.
Wistar-strain male rats (weighing 160 g ±20 g, three per group) were used. The suspension was orally administered to rats fasted 16 hours. 30, 60, 120, and 240 minutes after the administration of the test compound, blood was taken out from the rats. The blood was centrifuged at 3,000 rpm for 20 minutes to obtain a plasma sample. In the same manner as described in Experiment 2, the concentration (μg/ml) of test compound in plasma and also AUC (μg.hr/ml) were measured.

Data set [3] is described as follows: Bioavailability in oral administration in mice. The following applies: mouse, serum, mice, oral 50 mg/kg. In kind it is in vivo, ddY-strain male mice. How it is done: Each of the test compounds was suspended in a 0.5% sodium carboxymethylcellulose to prepare a suspension having a concentration of 5 mg/ml of the compound.
ddY-strain male mice (5 week old, weighing 22 to 25 g, three per group) were used. The suspension was orally administered to mice fasted for 16 hours. The dose of the test compound was adjusted to 50 mg/kg of body weight of animal. 30, 60, 120, and 240 minutes after the administration of the test compound, blood was taken out from each mouse, and the blood sample thus obtained was centrifuged at 3,000 rpm for 20 minutes to obtain a serum sample.

Data set [4] is described as follows: in vivo. The note with it: mouse, in vivo, iv. In kind it is in vivo. As to the method: as §1
In intravenous administration: Each of the test compounds was dissolved in 1N aqueous sodium hydroxide solution and thereto was added a phosphoric acid-saline buffer (pH 7.2) to prepare a test solution. The test solution was intravenously injected to ddy-strain male mice (weighing 20-25 g, five per group). One week after the administration of the test solution, the LD50 was determined in accordance with Weil method.

Data set [5] relates to Pseudomonas aeruginosa IFO 3445. Description: MIC. The following applies: IFO3445, gram negative, read-out: MIC. In kind it is cell-based. How it is done: (§2) In accordance with the method as disclosed in Chemotherapy, Vol. 29, pages 76-79 (1981), MIC (μg/ml) of each test compound was measured.
In data set [6] the test system is Staphylococcus epidermidis. Description: MIC. In kind it is cell-based. The following applies: gram positive. As to the method:
as §2

The test system of the next data set is Proteus Vulgaris HX-19. Description: MIC. The note with it: gram negative. In kind it is cell-based. As to the method:
as §2

The test system of data set [7] is Salmonella paratyphi 1015. The data set can be described thus: MIC. The following applies: Salmonella enterica. In kind it is cell-based. As to the method: as §2
The subject of data set [8] is Escherichia coli NIHJ JC-2. The data set can be described thus: MIC. The note with it: NIHJJC2, gram negative. In kind it is cell-based. As to the method: as §2
Data set [9] has as its system Bacillus subtilis ATCC 6633. The data set can be described thus: MIC. In kind it is cell-based. The note with it: ATCC6633, gram positive. How it is done:
as §2

In data set [10] the test system is Serratia marcescens IAM 1184. Description: MIC. In kind it is cell-based. The following applies: IAM1184, gram negative. As to the method:
as §2

Data set [11] relates to Staphylococcus aureus FDA 209P JC-1. Description: MIC. The following applies: FDA209P, gram positive. In kind it is cell-based. As to the method: as §2
Data set [12] relates to Klebsiella pneumoniae PCI-602. Description: MIC. In kind it is cell-based. The following applies: PCI602, gram negative. As to the method:
as §2

A word on the LD50: it is the dose expected to kill half of the subjects tested. For orientation: AUC means concentration integrated over time. Usually MIC stands for the lowest concentration found to suppress growth. `CCn1cc(C(=O)O)c(=O)c2cc(F)c(N3CCN(C)CC3)c(F)c21` [D, 1-ethyl-6,8-difluoro-1,4-dihydro-7-[1-(4-methylpiperazinyl)]-4-oxoquinoline-3-carboxylic acid]: the LD50 at 168 h in “in vivo [1]” was 536 mg/kg; in “in vivo [4]”, 196 mg/kg. In addition, the concentration at 0.5 h was found to be 22600 ± 4500 ng/mL in data set [2] (after 30 min., read-out: Concentration in plasma) and 14400 ± 800 ng/mL in data set [3] (after 30 min., read-out: Concentration in serum). Also, the concentration at 1 h was found to be 24000 ± 2300 ng/mL in data set [2] (after 60 min., read-out: Concentration in plasma) and 11500 ± 900 ng/mL in data set [3] (after 60 min., read-out: Concentration in serum). The concentration at 2 h in [2] (after 120 min., read-out: Concentration in plasma) amounted to 14600 ± 1100 ng/mL; in data set [3] (after 120 min., read-out: Concentration in serum), 6700 ± 600 ng/mL. Besides, the concentration at 4 h in data set [2] (after 240 min., read-out: Concentration in plasma) worked out at 9300 ± 100 ng/mL; in [3] (after 240 min., read-out: Concentration in serum), 3400 ± 400 ng/mL. The AUC at 4 h in data set [2] (1-4 hrs., read-out: AUC) stood at 60400 ng·h/mL; in [3] (1-4 hrs., read-out: AUC), 29300 ng·h/mL. The MIC amounted to 1.56 µg/mL (≈ 4.44 µM) in data set [5]; 1.56 µg/mL (≈ 4.44 µM) in data set [6]; 0.05 µg/mL (≈ 0.142 µM) with Proteus Vulgaris HX-19; 0.1 µg/mL (≈ 0.285 µM) in data set [7]; 0.2 µg/mL (≈ 0.569 µM) in data set [8]; 0.2 µg/mL (≈ 0.569 µM) in data set [9]. The MIC in [10] was 0.78 µg/mL (≈ 2.22 µM); in data set [11] it was 0.78 µg/mL (≈ 2.22 µM); in data set [12], 0.1 µg/mL (≈ 0.285 µM).
